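Values below derive from 48-hour exposures of cells grown in 96-well plates, with endpoints linearly interpolated between the two concentrations bracketing the appropriate inhibition level. The concentration for 50% growth inhibition is given as GI50.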 Active and inactive are the calls of the source. Rule as the data show it: active = GI50 up to about 1.1 µM and inactive = higher.
Legend:
Test in all cases: NCI anticancer screen, dose series, 48 h
HT-29 = system: HT-29
K562 = system: K562
RPMI-8226 = system: RPMI-8226
SF-268 = system: SF-268
SN12C = system: SN12C
RXF 393 = system: RXF 393
NCI-H226 = system: NCI-H226
NCI/ADR-RES = system: NCI/ADR-RES
ACHN = system: ACHN
SK-MEL-28 = system: SK-MEL-28
NCI-H522 = system: NCI-H522
NCI-H460 = system: NCI-H460
DU-145 = system: DU-145
MOLT-4 = system: MOLT-4
TK-10 = system: TK-10
SR = system: SR
HCT-15 = system: HCT-15
OVCAR-8 = system: OVCAR-8
CAKI-1 = system: CAKI-1
HCT-116 = system: HCT-116

Row | SMILES | GI50 (HT-29) | GI50 (K562) | GI50 (RPMI-8226) | GI50 (SF-268) | GI50 (SN12C) | GI50 (RXF 393) | GI50 (NCI-H226) | GI50 (NCI/ADR-RES) | GI50 (ACHN) | GI50 (SK-MEL-28) | GI50 (NCI-H522) | GI50 (NCI-H460) | GI50 (DU-145) | GI50 (MOLT-4) | GI50 (TK-10) | GI50 (SR) | GI50 (HCT-15) [µM] | GI50 (OVCAR-8) | GI50 (CAKI-1) | GI50 (HCT-116)
1 | C/C=C(\N=C=S)C(=O)OC1C(COC(C)=O)OC([C@]2(O)CC(=O)C(N)=C(C(=O)O)C2=O)C(O)C1OC1CC(OC)C(O)([C@@H](C)OC(=O)[C@@H](C)CC)C(C)O1 (stereo not given in full) | 8.49 µM (inactive) | 2.11 µM (inactive) | 2.11 µM (inactive) | 9.57 µM (inactive) | 15 µM (inactive) | 5.35 µM (inactive) | 19.4 µM (inactive) | 94.4 µM (inactive) | 18.3 µM (inactive) | 7.66 µM (inactive) | 2.17 µM (inactive) | 20.7 µM (inactive) | 18.9 µM (inactive) | 2.44 µM (inactive) | 16.7 µM (inactive) | 4.39 µM (inactive) | 16 | 5.65 µM (inactive) | 19.6 µM (inactive) | 7.83 µM (inactive)
2 | CCOC(=O)C(Cc1ccc(N(CCCl)CCCl)cc1)NC(=O)CCCN1C(=O)CN=C(c2ccccc2)c2cc(Cl)ccc21 (stereo not given) | 15.3 µM (inactive) | 6.32 µM (inactive) | 3.48 µM (inactive) | 4.01 µM (inactive) | 4.43 µM (inactive) | 3.25 µM (inactive) | 35.2 µM (inactive) | 22 µM (inactive) | 7.08 µM (inactive) | 3.03 µM (inactive) | 3.03 µM (inactive) | 5.35 µM (inactive) | 14.9 µM (inactive) | 2.44 µM (inactive) | > 66.5 µM (inactive) | 2.31 µM (inactive) | 20.6 | 18.7 µM (inactive) | 15.2 µM (inactive) | 21 µM (inactive)
3 | CCN(CC)c1ccc(/C=C/C2=NN(c3cccc(S(=O)(=O)O)c3)C3(C2)C(Cl)C(=O)N3c2nc3ccccc3s2)cc1 (stereo not given) | 13.8 µM (inactive) | 5.55 µM (inactive) | 2.32 µM (inactive) | 16.8 µM (inactive) | 8.18 µM (inactive) | 3.98 µM (inactive) | 13.1 µM (inactive) | 17.9 µM (inactive) | 10.9 µM (inactive) | 20.7 µM (inactive) | 1.72 µM (inactive) | 9.1 µM (inactive) | 12.6 µM (inactive) | 3.04 µM (inactive) | 4.95 µM (inactive) | 2.47 µM (inactive) | 7.03 | 8.99 µM (inactive) | 3.48 µM (inactive) | 10.5 µM (inactive)
4 | CCN(CC)C(=S)SC1CCOP(=O)(N(CCCl)CCCl)N1C (stereo not given) | 1.99 µM (inactive) | 0.399 µM (active) | 1.34 µM (inactive) | > 50.7 µM (inactive) | 28.9 µM (inactive) | 29.9 µM (inactive) | 48.3 µM (inactive) | > 100 µM (inactive) | 38.9 µM (inactive) | 26.9 µM (inactive) | 0.43 µM (active) | 1.02 µM (active) | > 100 µM (inactive) | 0.439 µM (active) | > 71.1 µM (inactive) | 0.185 µM (active) | 28.2 | 29.9 µM (inactive) | 45.6 µM (inactive) | 0.412 µM (active)
5 | Cc1cc(NC(=O)NC(=O)c2ccccc2NC(=O)C(C)N)ccc1Oc1ncc(Br)cn1 (stereo not given) | 0.116 µM (active) | 0.136 µM (active) | 0.207 µM (active) | 0.408 µM (active) | 0.0885 µM (active) | 0.0111 µM (active) | 0.0703 µM (active) | 0.0208 µM (active) | 1.22 µM (inactive) | 0.184 µM (active) | 0.0301 µM (active) | 0.179 µM (active) | 0.136 µM (active) | 0.23 µM (active) | 1.22 µM (inactive) | 0.111 µM (active) | 0.31 | 0.141 µM (active) | 0.0173 µM (active) | 0.714 µM (active)
6 | CCN(CC)CC(O)c1ccc2ccc3ccccc3c2c1 (stereo not given) | 11.5 µM (inactive) | 17 µM (inactive) | 18.9 µM (inactive) | 17.8 µM (inactive) | 16.3 µM (inactive) | 16.8 µM (inactive) | 13.6 µM (inactive) | 16.3 µM (inactive) | 14.3 µM (inactive) | 19.7 µM (inactive) | 15.6 µM (inactive) | 17.5 µM (inactive) | 19 µM (inactive) | 16.4 µM (inactive) | 15.8 µM (inactive) | 5.69 µM (inactive) | 16.3 | 16.7 µM (inactive) | 13.1 µM (inactive) | 15.3 µM (inactive)
7 | C=C1C(=O)OC2/C=C(\CO)C3OC3C3OC3(C)CC(OC(=O)/C(=C/C)CO)C12 (stereo not given) | 54.7 µM (inactive) | 24.8 µM (inactive) | 17 µM (inactive) | 37.2 µM (inactive) | > 100 µM (inactive) | 47.1 µM (inactive) | > 100 µM (inactive) | > 100 µM (inactive) | 49.5 µM (inactive) | 42.1 µM (inactive) | 15.8 µM (inactive) | > 100 µM (inactive) | > 100 µM (inactive) | 26.4 µM (inactive) | > 100 µM (inactive) | 28.2 µM (inactive) | 36.6 | 86.3 µM (inactive) | 28.3 µM (inactive) | 35.8 µM (inactive)

From ChEMBL document CHEMBL1201862, “PubChem BioAssay data set” (2004)
